## O=C(O)CNC(=O)C(=O)NCC(=O)O
In DMF, 293.15 K
  solubility (mole fraction): 0.0292
In DMF, 298.15 K
  solubility (mole fraction): 0.0401
In DMF, 303.15 K
  solubility (mole fraction): 0.0519
In DMF, 308.15 K
  solubility (mole fraction): 0.0629
In DMF, 313.15 K
  solubility (mole fraction): 0.0732
In DMF, 318.15 K
  solubility (mole fraction): 0.082
In DMF, 323.15 K
  solubility (mole fraction): 0.0879
In DMF, 328.15 K
  solubility (mole fraction): 0.0909
In DMF, 333.15 K
  solubility (mole fraction): 0.0923
In DMSO, 293.15 K
  solubility (mole fraction): 0.0675
In DMSO, 298.15 K
  solubility (mole fraction): 0.0736
In DMSO, 303.15 K
  solubility (mole fraction): 0.0807
In DMSO, 308.15 K
  solubility (mole fraction): 0.0879
In DMSO, 313.15 K
  solubility (mole fraction): 0.0963
In DMSO, 318.15 K
  solubility (mole fraction): 0.105
In DMSO, 323.15 K
  solubility (mole fraction): 0.114
In DMSO, 328.15 K
  solubility (mole fraction): 0.124
In DMSO, 333.15 K
  solubility (mole fraction): 0.136
In THF, 293.15 K
  solubility (mole fraction): 3.5e-06
In THF, 298.15 K
  solubility (mole fraction): 1.41e-05
In THF, 303.15 K
  solubility (mole fraction): 4.17e-05
In THF, 308.15 K
  solubility (mole fraction): 9.96e-05
In THF, 313.15 K
  solubility (mole fraction): 0.000203
In THF, 318.15 K
  solubility (mole fraction): 0.000354
In THF, 323.15 K
  solubility (mole fraction): 0.000527
In THF, 328.15 K
  solubility (mole fraction): 0.000715
In THF, 333.15 K
  solubility (mole fraction): 0.000892
In acetonitrile, 293.15 K
  solubility (mole fraction): 1.6e-06
In acetonitrile, 298.15 K
  solubility (mole fraction): 3.2e-06
In acetonitrile, 303.15 K
  solubility (mole fraction): 5.6e-06
In acetonitrile, 308.15 K
  solubility (mole fraction): 9.2e-06
In acetonitrile, 313.15 K
  solubility (mole fraction): 1.41e-05
In acetonitrile, 318.15 K
  solubility (mole fraction): 2.01e-05
In acetonitrile, 323.15 K
  solubility (mole fraction): 2.73e-05
In acetonitrile, 328.15 K
  solubility (mole fraction): 3.62e-05
In acetonitrile, 333.15 K
  solubility (mole fraction): 4.71e-05
In ethanol, 293.15 K
  solubility (mole fraction): 2.08e-05
In ethanol, 298.15 K
  solubility (mole fraction): 3.75e-05
In ethanol, 303.15 K
  solubility (mole fraction): 6.27e-05
In ethanol, 308.15 K
  solubility (mole fraction): 0.000104
In ethanol, 313.15 K
  solubility (mole fraction): 0.000155
In ethanol, 318.15 K
  solubility (mole fraction): 0.000216
In ethanol, 323.15 K
  solubility (mole fraction): 0.00029
In ethanol, 328.15 K
  solubility (mole fraction): 0.000382
In ethanol, 333.15 K
  solubility (mole fraction): 0.0005
In ethyl acetate, 293.15 K
  solubility (mole fraction): 4.3e-06
In ethyl acetate, 298.15 K
  solubility (mole fraction): 6e-06
In ethyl acetate, 303.15 K
  solubility (mole fraction): 7.8e-06
In ethyl acetate, 308.15 K
  solubility (mole fraction): 1.04e-05
In ethyl acetate, 313.15 K
  solubility (mole fraction): 1.38e-05
In ethyl acetate, 318.15 K
  solubility (mole fraction): 1.81e-05
In ethyl acetate, 323.15 K
  solubility (mole fraction): 2.24e-05
In ethyl acetate, 328.15 K
  solubility (mole fraction): 2.76e-05
In ethyl acetate, 333.15 K
  solubility (mole fraction): 3.37e-05
In isopropanol, 293.15 K
  solubility (mole fraction): 7.7e-06
In isopropanol, 298.15 K
  solubility (mole fraction): 1.47e-05
In isopropanol, 303.15 K
  solubility (mole fraction): 2.59e-05
In isopropanol, 308.15 K
  solubility (mole fraction): 4.71e-05
In isopropanol, 313.15 K
  solubility (mole fraction): 7.77e-05
In isopropanol, 318.15 K
  solubility (mole fraction): 0.000118
In isopropanol, 323.15 K
  solubility (mole fraction): 0.000174
In isopropanol, 328.15 K
  solubility (mole fraction): 0.000246
In isopropanol, 333.15 K
  solubility (mole fraction): 0.000355
In methanol, 293.15 K
  solubility (mole fraction): 0.000159
In methanol, 298.15 K
  solubility (mole fraction): 0.000222
In methanol, 303.15 K
  solubility (mole fraction): 0.000303
In methanol, 308.15 K
  solubility (mole fraction): 0.000409
In methanol, 313.15 K
  solubility (mole fraction): 0.000527
In methanol, 318.15 K
  solubility (mole fraction): 0.000663
In methanol, 323.15 K
  solubility (mole fraction): 0.000816
In methanol, 328.15 K
  solubility (mole fraction): 0.000997
In methanol, 333.15 K
  solubility (mole fraction): 0.00121
In n-butanol, 293.15 K
  solubility (mole fraction): 2.9e-06
In n-butanol, 298.15 K
  solubility (mole fraction): 5.3e-06
In n-butanol, 303.15 K
  solubility (mole fraction): 1e-05
In n-butanol, 308.15 K
  solubility (mole fraction): 1.77e-05
In n-butanol, 313.15 K
  solubility (mole fraction): 3.06e-05
In n-butanol, 318.15 K
  solubility (mole fraction): 5.12e-05
In n-butanol, 323.15 K
  solubility (mole fraction): 7.95e-05
In n-butanol, 328.15 K
  solubility (mole fraction): 0.00012
In n-butanol, 333.15 K
  solubility (mole fraction): 0.00019
In n-propanol, 293.15 K
  solubility (mole fraction): 5.9e-06
In n-propanol, 298.15 K
  solubility (mole fraction): 8.2e-06
In n-propanol, 303.15 K
  solubility (mole fraction): 1.3e-05
In n-propanol, 308.15 K
  solubility (mole fraction): 2.06e-05
In n-propanol, 313.15 K
  solubility (mole fraction): 3.41e-05
In n-propanol, 318.15 K
  solubility (mole fraction): 5.83e-05
In n-propanol, 323.15 K
  solubility (mole fraction): 0.000104
In n-propanol, 328.15 K
  solubility (mole fraction): 0.000198
In n-propanol, 333.15 K
  solubility (mole fraction): 0.000355
In water, 293.15 K
  solubility (mole fraction): 0.000127
In water, 298.15 K
  solubility (mole fraction): 0.000183
In water, 303.15 K
  solubility (mole fraction): 0.000267
In water, 308.15 K
  solubility (mole fraction): 0.000362
In water, 313.15 K
  solubility (mole fraction): 0.00048
In water, 318.15 K
  solubility (mole fraction): 0.000634
In water, 323.15 K
  solubility (mole fraction): 0.000816
In water, 328.15 K
  solubility (mole fraction): 0.00105
In water, 333.15 K
  solubility (mole fraction): 0.00136

Source: BigSolDB 2.1
